Measured values published in ChEMBL document CHEMBL4483862, “Open-source discovery of chemical leads for next-generation chemoprotective antimalarials” (2018).

System: Plasmodium berghei
Experiment: Luciferase/luciferin-expressing antifolate-resistant parasites were used to infect a culture of HepG2 cells that were pre-incubated with compounds. Infected hepatocytes emit light due to the luciferase reaction. Assay results are presented as the percent inhibition of light emission compared to control. […]
Assay type: functional
Settings: sporozoite; for IC90: read-out: LUCIFERASE INFECTION ASSAY - IC90

In the case of O=C(OC1CCCCC1)c1ccc(NC(=O)C2CCCCC2)cc1, the IC50 (PBLUC_HILL_SLOPE 6.21, PBLUC_R_SQUARED 0.113, read-out: LUCIFERASE INFECTION ASSAY - IC50) is reported as 9.48 µM and the IC90 is reported as over 10 µM.

With O=C(Nc1cccc(C(F)(F)F)c1)n1cc(-c2ccccn2)c(N2CCOCC2)n1 the IC50 (PBLUC_HILL_SLOPE 5.81, PBLUC_R_SQUARED 0.476, read-out: LUCIFERASE INFECTION ASSAY - IC50) was 5.62 µM and the IC90 was over 7.91 µM.

Compound Cc1cc(C(C)(C)C)cc(C)c1S(=O)(=O)N1CC(=O)Nc2ccccc21 has an IC50 (PBLUC_HILL_SLOPE 6.12, PBLUC_R_SQUARED 0.785, read-out: LUCIFERASE INFECTION ASSAY - IC50) of 6.84 µM and an IC90 of over 8.86 µM.

CC(C)c1ccc(NC(=O)Nc2nc(C(N)C3CCCCC3)cs2)cc1 (stereo not given) gave an IC50 (PBLUC_HILL_SLOPE 7.05, PBLUC_R_SQUARED 0.602, read-out: LUCIFERASE INFECTION ASSAY - IC50) of 7.75 µM and an IC90 of over 8.86 µM.

O=C(Nc1ccccc1)N1CCc2sccc2C1c1ccc(C(F)(F)F)cc1 (stereo not given) was tested, and the IC50 (PBLUC_HILL_SLOPE 6.19, PBLUC_R_SQUARED 0.577, read-out: LUCIFERASE INFECTION ASSAY - IC50) was 4.16 µM and the IC90 was 5.93 µM.

Work on OC1(c2ccc(F)cc2)CS/C(=N\c2cccnc2)N1Cc1ccco1 (stereo not given) yielded an IC50 (PBLUC_HILL_SLOPE 6.5, PBLUC_R_SQUARED 0.331, read-out: LUCIFERASE INFECTION ASSAY - IC50) of 8.78 µM and an IC90 of over 10 µM.

COc1cccc(NC(=O)Nc2nc(-c3cc4ccccc4o3)cs2)c1 was tested, and the IC50 (PBLUC_HILL_SLOPE 6.07, PBLUC_R_SQUARED 0.713, read-out: LUCIFERASE INFECTION ASSAY - IC50) was 5.5 µM and the IC90 was 7.91 µM.

Cc1ccc2c(Cl)cc(Cl)c(OCN3C(=O)c4ccccc4C3=O)c2n1 gave an IC50 (PBLUC_HILL_SLOPE 5.8, PBLUC_R_SQUARED 0.551, read-out: LUCIFERASE INFECTION ASSAY - IC50) of 3.99 µM and an IC90 of 5.83 µM.

O=C(Nc1ccc(OC(F)F)c(Cc2ccccc2)c1)c1ccc(-n2ccnc2)nc1 showed an IC50 (PBLUC_HILL_SLOPE 6.37, PBLUC_R_SQUARED 0.721, read-out: LUCIFERASE INFECTION ASSAY - IC50) of 8.94 µM and an IC90 of over 10 µM.

COc1ccc(-n2c(C)cc(/C=C(\C#N)C(=O)NCC(c3cccs3)N3CCOCC3)c2C)cc1 (stereo not given) gave an IC50 (PBLUC_HILL_SLOPE 6.75, PBLUC_R_SQUARED 0.0585, read-out: LUCIFERASE INFECTION ASSAY - IC50) of over 10 µM and an IC90 of over 10 µM.

Cc1ccccc1OCC(O)CN(CC(C)C)CC(C)C (stereo not given) showed an IC50 (PBLUC_HILL_SLOPE 6.96, PBLUC_R_SQUARED 0.782, read-out: LUCIFERASE INFECTION ASSAY - IC50) of 8.86 µM and an IC90 of over 10 µM.

COc1ccc(-c2cnc3cnc(-c4ccccc4)cn23)cn1 showed an IC50 (PBLUC_HILL_SLOPE 7.01, PBLUC_R_SQUARED 0.635, read-out: LUCIFERASE INFECTION ASSAY - IC50) of 9.42 µM and an IC90 of over 10.9 µM.

O=C(CSc1nc2sc3c(c2c(=O)n1-c1cccc(C(F)(F)F)c1)CCCC3)NC12CC3CC(CC(C3)C1)C2 gave an IC50 (PBLUC_HILL_SLOPE 5.84, PBLUC_R_SQUARED 0.777, read-out: LUCIFERASE INFECTION ASSAY - IC50) of 5.41 µM and an IC90 of 7.89 µM.

COc1ccc(-c2cnc3cnc(-c4ccc(CO)cc4)cn23)cn1 gave an IC50 (PBLUC_HILL_SLOPE 6.35, PBLUC_R_SQUARED 0.601, read-out: LUCIFERASE INFECTION ASSAY - IC50) of 6.81 µM and an IC90 of 9.63 µM.

Compound CC(Cn1cccn1)NC(=O)C(=O)Nc1ccccc1SC1CCCC1 (stereo not given) has an IC50 (PBLUC_HILL_SLOPE 6.42, PBLUC_R_SQUARED 0.787, read-out: LUCIFERASE INFECTION ASSAY - IC50) of 4.18 µM and an IC90 of 5.88 µM.

Work on Cc1nn(-c2ccccc2)c(C)c1C(=O)NCc1cccc(NC(=O)C(C)C)c1 yielded an IC50 (PBLUC_HILL_SLOPE 6.57, PBLUC_R_SQUARED 0.408, read-out: LUCIFERASE INFECTION ASSAY - IC50) of 5.51 µM and an IC90 of 7.7 µM.

Compound C/N=c1\scc(-c2ccccc2OC)n1/N=C/c1ccc[nH]1 has an IC50 (PBLUC_HILL_SLOPE 6.06, PBLUC_R_SQUARED 0.259, read-out: LUCIFERASE INFECTION ASSAY - IC50) of 0.0426 µM and an IC90 of 0.0612 µM.

With CC(=O)c1cccc(-c2cnc3cnc(-c4ccc(CO)cc4)cn23)c1 the IC50 (PBLUC_HILL_SLOPE 6.05, PBLUC_R_SQUARED 0.635, read-out: LUCIFERASE INFECTION ASSAY - IC50) was 7.62 µM and the IC90 was over 9.61 µM.

CC(C)(C)C(=O)Nc1ccc(-c2csc(-n3nccc3C(F)(F)F)n2)cc1 gave an IC50 (PBLUC_HILL_SLOPE 6.43, PBLUC_R_SQUARED 0.126, read-out: LUCIFERASE INFECTION ASSAY - IC50) of 8.51 µM and an IC90 of over 10 µM.

Work on CSc1nnnn1-c1cccc(NC(=O)c2cc(-c3cccs3)nc3c2cnn3C(C)C)c1 yielded an IC50 (PBLUC_HILL_SLOPE 6.42, PBLUC_R_SQUARED 0.137, read-out: LUCIFERASE INFECTION ASSAY - IC50) of over 10 µM and an IC90 of over 10 µM.

For CC(C)(O)C#Cc1ccc(/C=N/Nc2cccc(C(F)(F)F)n2)cc1, the IC50 (PBLUC_HILL_SLOPE 6.25, PBLUC_R_SQUARED 0.631, read-out: LUCIFERASE INFECTION ASSAY - IC50) was 4.26 µM and the IC90 was 6.05 µM.

CNc1nc2cnc(-c3cncc(OC)c3)cc2n1Cc1ccc(OC)c(OC)c1 gave an IC50 (PBLUC_HILL_SLOPE 6.98, PBLUC_R_SQUARED 0.0782, read-out: LUCIFERASE INFECTION ASSAY - IC50) of 8.17 µM and an IC90 of over 10 µM.

Fc1cccc(Cl)c1CSc1nnc(-c2cc(C(F)(F)F)cc(C(F)(F)F)c2)[nH]1 was tested, and the IC50 (PBLUC_HILL_SLOPE 6.81, PBLUC_R_SQUARED 0.556, read-out: LUCIFERASE INFECTION ASSAY - IC50) was over 7.24 µM and the IC90 was over 7.24 µM.

Compound Cc1ccc(CN(C)C(=O)C2CCN(c3ncnc4sc(C)c(C)c34)CC2)o1 has an IC50 (PBLUC_HILL_SLOPE 6.95, PBLUC_R_SQUARED 0.517, read-out: LUCIFERASE INFECTION ASSAY - IC50) of 8.99 µM and an IC90 of over 10 µM.

With Cc1sc2nc(-c3cccnc3)nc(Nc3ccc(N(C)C)nc3)c2c1C the IC50 (PBLUC_HILL_SLOPE 6.08, PBLUC_R_SQUARED 0.68, read-out: LUCIFERASE INFECTION ASSAY - IC50) was 3.9 µM and the IC90 was 5.59 µM.

In the case of CCCS(=O)(=O)/C(C#N)=N/Nc1cc(C(F)(F)F)cc(C(F)(F)F)c1, the IC50 (PBLUC_HILL_SLOPE 6.87, PBLUC_R_SQUARED 0.748, read-out: LUCIFERASE INFECTION ASSAY - IC50) is reported as 3.21 µM and the IC90 is reported as 4.41 µM.

Work on O=C(Nc1ccccc1)Nc1cncc(C#Cc2ccccc2)c1 yielded an IC50 (PBLUC_HILL_SLOPE 6.32, PBLUC_R_SQUARED 0.624, read-out: LUCIFERASE INFECTION ASSAY - IC50) of 7.23 µM and an IC90 of 10.2 µM.

With NC(=O)NC(CC(=O)OCC(=O)Nc1ccccc1-c1ccccc1)c1ccc(Cl)cc1 (stereo not given) the IC50 (PBLUC_HILL_SLOPE 5.92, PBLUC_R_SQUARED 0.131, read-out: LUCIFERASE INFECTION ASSAY - IC50) was over 10 µM and the IC90 was over 10 µM.

CCCNC(=O)c1c(NC(=O)c2ccc(C)cc2)nc2ccccn12 showed an IC50 (PBLUC_HILL_SLOPE 5.82, PBLUC_R_SQUARED 0.26, read-out: LUCIFERASE INFECTION ASSAY - IC50) of 6.58 µM and an IC90 of 9.6 µM.

In the case of Cc1c(-c2ccccc2)oc2c(C(=O)N3CCc4ccccc4C3)cccc2c1=O, the IC50 (PBLUC_HILL_SLOPE 6.24, PBLUC_R_SQUARED 0.0221, read-out: LUCIFERASE INFECTION ASSAY - IC50) is reported as over 10 µM and the IC90 is reported as over 10 µM.

Work on C#CCOc1ccc(CNCCc2ccccc2)cc1OCC yielded an IC50 (PBLUC_HILL_SLOPE 6.85, PBLUC_R_SQUARED 0.0184, read-out: LUCIFERASE INFECTION ASSAY - IC50) of over 9.54 µM and an IC90 of over 9.54 µM.

For CCCCOc1ccc(Nc2nc(C(N)c3ccccc3Cl)cs2)nn1 (stereo not given), the IC50 (PBLUC_HILL_SLOPE 6.47, PBLUC_R_SQUARED 0.485, read-out: LUCIFERASE INFECTION ASSAY - IC50) was 6.01 µM and the IC90 was 8.44 µM.

Cc1nn2c(nc(Sc3nnnn3C(C)C)c3ccccc32)c1Cl gave an IC50 (PBLUC_HILL_SLOPE 6.07, PBLUC_R_SQUARED 0.112, read-out: LUCIFERASE INFECTION ASSAY - IC50) of 8.31 µM and an IC90 of over 10 µM.

With O=C(Cc1ccsc1)Nc1nc(-c2ccccn2)cs1 the IC50 (PBLUC_HILL_SLOPE 6.07, PBLUC_R_SQUARED 0.668, read-out: LUCIFERASE INFECTION ASSAY - IC50) was 6.18 µM and the IC90 was 8.87 µM.

Compound COc1ccc(C2CC(c3ccccc3)=Nc3ccccc3S2)cc1 (stereo not given) has an IC50 (PBLUC_HILL_SLOPE 6.73, PBLUC_R_SQUARED 0.0739, read-out: LUCIFERASE INFECTION ASSAY - IC50) of over 9.55 µM and an IC90 of over 9.55 µM.

Compound CC(Nc1ccc(Cc2nc3ccccc3s2)cc1)C(=O)N1CCNC1=O (stereo not given) has an IC50 (PBLUC_HILL_SLOPE 6.15, PBLUC_R_SQUARED 0.163, read-out: LUCIFERASE INFECTION ASSAY - IC50) of 6.81 µM and an IC90 of 9.74 µM.

COc1ccc(-c2cc(-c3cc(C)ccc3O)c3c(n2)-c2ccccc2C3=O)cc1 was tested, and the IC50 (PBLUC_HILL_SLOPE 6.66, 3.32, PBLUC_R_SQUARED 0.385, 0.180, read-out: LUCIFERASE INFECTION ASSAY - IC50) was 9.15 µM and the IC90 was over 10 µM.

CC(C)c1ccc(-n2c(SCc3ccccc3Cl)nnc2-c2ccc(C(C)(C)C)cc2)cc1 showed an IC50 (PBLUC_HILL_SLOPE 6.16, PBLUC_R_SQUARED 0.605, read-out: LUCIFERASE INFECTION ASSAY - IC50) of 3.2 µM and an IC90 of 4.57 µM.

CN(C)C(=O)c1cccc(-c2cn3c(-c4ccc5ncccc5c4)cnc3cn2)c1 showed an IC50 (PBLUC_HILL_SLOPE 5.92, PBLUC_R_SQUARED 0.583, read-out: LUCIFERASE INFECTION ASSAY - IC50) of 5.83 µM and an IC90 of over 8.39 µM.

NNc1nc(C(F)(F)F)nc2c1cnn2-c1ccccc1 showed an IC50 (PBLUC_HILL_SLOPE 6.68, PBLUC_R_SQUARED 0.4, read-out: LUCIFERASE INFECTION ASSAY - IC50) of 3.62 µM and an IC90 of 5.03 µM.
